What was measured:
[1] = rats, cited from earlier work
[2] = across species tested; cited from earlier work
[3] = cited from earlier work
[4] = system: human subjects with a Binge eating disorder (BED); experiment: Psychedelic experience questionnaires (CEQ, MEQ30) one day after dosing; settings: one subject
[5] = system: human subjects with a Binge eating disorder (BED); experiment: Safety evaluation in the clinical study (adverse events, vital signs); type: in vivo
Protocol: Subjects were instructed to consume a low-fat breakfast at least one hour before reporting to the dosing session, where a single 25 mg oral dose of psilocybin was to be administered (Usona Institute). On dosing day, vital signs, for example, heart rate and BP, were assessed prior to administration of psilocybin and at 30, 60, 90, 120, 180, 240, 300, and 360 minutes post-administration. 12-lead ECGs were performed in triplicate pre-dosing and 60, 120, and 360 minutes after capsule administration. C-SSRS responses were reported prior to and following dosing. […] ACT-based clinical formulation continues as the therapist listens to emergent narratives and notes instances of psychological flexibility and inflexibility, especially present moment awareness, avoidance, and values.
Session monitors were trained to provide support to subjects if they experience acute anxiety, agitation, paranoia, or panic. However, in the event of an AE, a physician was consulted. AEs include psychiatric emergency, hypertension, acute chest pain, and headache. An oral benzodiazepine, for example, lorazepam, was available for treatment of panic or anxiety. An oral antipsychotic, for example, risperidone, was available for treatment of psychosis or severe agitation. If a subject experienced hypertension, a BP of >200 mm Hg systolic or >110 mm Hg diastolic for more than 15 minutes from four consecutive readings, the subject was transferred to the emergency room whether or not they were symptomatic. Labetalol or similar drug was available for treatment of hypertension. If a subject developed new-onset chest pain, the subject was evaluated in-person by the study physician to determine whether the pain was cardiovascular or musculoskeletal, or reflects acute panic/anxiety. Vital signs and ECG were monitored and compared to baseline measurements for evidence of acute ischemia. […]
Vital signs, such as BP and heart rate, were recorded at the dosing session, the day following dosing, and at Weeks 6, 10, and 14 (4, 8, and 12 weeks after the dosing session). […]
Adverse events (AEs) were monitored throughout the study. […]

[6] = system: human subjects with a Binge eating disorder (BED); experiment: Open-label clinical study of oral psilocybin with psychotherapy in BED: eating behavior, body and psychological indicators; type: in vivo; settings: for BMI / Waist circumference / HADS Anxiety Score / HADS Depression Score / Acceptance and Action Questionnaire (AAQ-II) score / Patient Global Impression (PGI-I) score / Binge Eating Scale (BES) score: one subject; for Patient Global Impression (PGI-I) score: scale 1 (very much improved) to 7, baseline set at 4; for Binge Eating Scale (BES) score: BES ranges from 0 to 46
[7] = doses examined in clinical studies; cited from earlier work
tissue phosphatases = settings: in vitro studies; cited from earlier work
[8] = system: 2-deoxy-D-glucose-induced hyperphagia; settings: rats; cited from earlier work
[9] = day 0 (day of administration of psilocybin, 25 mg oral)
[10] = day 0, after dosing (25 mg oral)
[11] = day 27 after single 25 mg oral dose with psychotherapy
[12] = day −42 relative to dosing day (baseline, before psilocybin)

Structure (SMILES): CN(C)CCc1c[nH]c2cccc(O)c12 [psilocin]
- Time to maximum plasma levels ([1]; post-administration of oral psilocybin): approximately 90 minutes
- Fraction of total psilocin absorbed from the digestive tract ([1]; psilocybin administered orally): approximately 50%
- Brain regions with highest levels of psilocin [2]: neocortex, hippocampus, and thalamus
- Time until psilocin is detectable in plasma ([3]; after administration of the parent compound (oral psilocybin)): ≤ 20 min
- Half-life in blood ([3]; in vivo): 2 to 3 h

Structure (SMILES): CN(C)CCc1c[nH]c2cccc(OP(=O)(O)O)c12 [psilocybin, 3-[2-(dimethylamino)ethyl]-1H-indol-4-yl]dihydrogen phosphate]
- Challenging Experience Questionnaire score: Death ([4]; CEQ ranges from 0.000 to 1.000): 0
- Challenging Experience Questionnaire score: Fear ([4]; CEQ ranges from 0.000 to 1.000): 0.16
- Challenging Experience Questionnaire score: Grief ([4]; CEQ ranges from 0.000 to 1.000): 0
- Challenging Experience Questionnaire score: Insanity ([4]; CEQ ranges from 0.000 to 1.000): 0
- Challenging Experience Questionnaire score: Isolation ([4]; CEQ ranges from 0.000 to 1.000): 0
- Challenging Experience Questionnaire score: Paranoia ([4]; CEQ ranges from 0.000 to 1.000): 0
- Challenging Experience Questionnaire score: Physical Distress ([4]; CEQ ranges from 0.000 to 1.000): 0.24
- Challenging Experience Questionnaire score: Total Score ([4]; CEQ ranges from 0.000 to 1.000): 0.06
- MEQ30 score: Ineffability ([4]; MEQ30 ranges from 0% to 100%): 80%
- MEQ30 score: Mystical ([4]; MEQ30 ranges from 0% to 100%): 45.33%
- MEQ30 score: Positive mood ([4]; MEQ30 ranges from 0% to 100%): 93.33%
- MEQ30 score: Total Score ([4]; MEQ30 ranges from 0% to 100%): 58.67%
- MEQ30 score: Transcendence of time and space ([4]; MEQ30 ranges from 0% to 100%): 46.67%
- Drug-related adverse events ([5]; 5 subjects, four-week period following administration): No drug-related adverse events were reported
- Changes in heart rate or blood pressure ([5]; one subject, 25 mg oral dose): No substantial changes were observed
- Adverse events ([5]; one subject, during the administration or the integration sessions): No adverse events were observed
- Persistence of decrease in FBE after administration ([6]; 3 subjects for whom data was available): over 80 days
- Reduction of daily instances of feeling lost control over eating, 4 of 5 subjects ([6]; 4 of 5 subjects, four-week post-dosing measurement period): greater than 70%
- Reduction in daily binge eating episodes from baseline, 4 of 5 subjects ([6]; 4 of 5 subjects, four-week post-dosing measurement period, FIG. 3A): ≥ 75%
- Reduction of daily instances of feeling lost control over eating, average (Eating Questionnaire Q2) ([6]; 5 subjects, four-week post-dosing measurement period, FIG. 3B): 81.6%
- Duration of effects on BED symptom improvement ([6]; after administration of a single dose): ≥ 80 days
- Persistence of decrease in FBE after administration ([6]; all 4 subjects for whom data was available): ≥ 50 days
- Daily reduction in binge eating episodes from baseline, all subjects ([6]; all 5 subjects, four-week post-dosing measurement period): at least 60%
- Reduction of daily binge eating episodes from baseline, average (Eating Questionnaire Q1) ([6]; average across 5 subjects, four-week post-dosing measurement period, single 25 mg oral dose): 80.4%
- BMI [6, 9]: 43.5 kg/m^2
- Waist circumference [6, 9]: 105.9 cm
- HADS Anxiety Score [6, 10]: 6
- HADS Depression Score [6, 10]: 6
- HADS Anxiety Score ([6]; day 0, before dosing): 5
- HADS Depression Score ([6]; day 0, before dosing): 5
- Acceptance and Action Questionnaire (AAQ-II) score ([6]; day 13 after dosing): 10
- HADS Anxiety Score ([6]; day 13 after dosing): 4
- HADS Depression Score ([6]; day 13 after dosing): 0
- Patient Global Impression (PGI-I) score ([6]; day 13 after dosing): 1
- Acceptance and Action Questionnaire (AAQ-II) score ([6]; day 27 after dosing): 10
- HADS Anxiety Score ([6]; day 27 after dosing): 2
- HADS Depression Score ([6]; day 27 after dosing): 1
- Patient Global Impression (PGI-I) score ([6]; day 27 after dosing): 1
- BMI [6, 11]: 42.5 kg/m^2
- Waist circumference [6, 11]: 104.4 cm
- Binge Eating Scale (BES) score ([6]; day 27 after single 25 mg oral dose): 5
- Acceptance and Action Questionnaire (AAQ-II) score ([6]; day −42 (baseline)): 13
- HADS Anxiety Score ([6]; day −42 (baseline)): 5
- HADS Depression Score ([6]; day −42 (baseline)): 5
- Binge Eating Scale (BES) score ([6]; day −42 (baseline)): 13
- BMI [6, 12]: 42.9 kg/m^2
- Waist circumference [6, 12]: 106.6 cm
- Bioavailability ([3]; oral): ~50%
- Tolerability [7]: well tolerated
- Most active metabolic organs for initial psilocybin metabolism (tissue phosphatases): kidneys as being among the most active metabolic organs

Structure (SMILES): Clc1cccc(N2CCNCC2)c1 [m-chlorophenylpiperazine]
- Effect on 2-deoxy-D-glucose-induced hyperphagia [8]: inhibited
